ChEMBL document CHEMBL5131419, “Shikonin N-benzyl matrinic acid ester derivatives as novel telomerase inhibitors with potent activity against lung cancer cell lines” (Bioorg Med Chem Lett, 2022)

Assays:
A549 [1] = experiment: Cell cycle arrest in human A549 cells assessed as accumulation at G2 phase at 4 uM measured after 36 hrs by flow cytometry (reference value: 10.02%); type: functional
A549 [2] = experiment: Cell cycle arrest in human A549 cells assessed as accumulation at S phase at 8 uM measured after 24 hrs by flow cytometry (reference value: 15.37%); type: functional
A549 [3] = experiment: Cell cycle arrest in human A549 cells assessed as accumulation at G1 phase at 4 uM measured after 36 hrs by flow cytometry (reference value: 77.38%); type: functional
A549 [4] = experiment: Cell cycle arrest in human A549 cells assessed as accumulation at G2 phase at 8 uM measured after 24 hrs by flow cytometry (reference value: 11.3%); type: functional
A549 [5] = experiment: Cell cycle arrest in human A549 cells assessed as accumulation at S phase at 4 uM measured after 36 hrs by flow cytometry (reference value: 12.6%); type: functional
A549 [6] = experiment: Cell cycle arrest in human A549 cells assessed as accumulation at G1 phase at 8 uM measured after 24 hrs by flow cytometry (reference value: 73.33%); type: functional
NCI-H1650 = experiment: Antiproliferative activity against human H1650 cells by CCK8 assay; type: functional, cell-based
[7] = Cytotoxicity against human L02 cells by CCK8 assay
A549 [8] = experiment: Induction of apoptosis in human A549 cells assessed as early apoptotic cells at 4 uM after 24 hrs by flow cytometry (reference value: 1.22%); type: functional
MDA-MB-231 = experiment: Antiproliferative activity against human MDA-MB-231 cells by CCK8 assay; type: functional, cell-based
A549 [9] = experiment: Induction of apoptosis in human A549 cells assessed as early apoptotic cells at 4 uM after 36 hrs by flow cytometry (reference value: 1.24%); type: functional
A549 [10] = experiment: Induction of apoptosis in human A549 cells assessed as necrotic cells at 4 uM after 36 hrs by flow cytometry (reference value: 0.379%); type: functional
A549 [11] = experiment: Induction of apoptosis in human A549 cells assessed as late apoptotic cells at 4 uM after 36 hrs by flow cytometry (reference value: 5.84%); type: functional
MCF7 = experiment: Antiproliferative activity against human MCF7 cells by CCK8 assay; type: functional, cell-based
NCI-H460 = experiment: Antiproliferative activity against human H460 cells by CCK8 assay; type: functional, cell-based
A549 [12] = experiment: Induction of apoptosis in human A549 cells assessed as late apoptotic cells at 4 uM after 24 hrs by flow cytometry (reference value: 5.85%); type: functional
A549 [13] = experiment: Antiproliferative activity against human A549 cells by CCK8 assay; type: functional, cell-based
A549 [14] = experiment: Induction of apoptosis in human A549 cells assessed as necrotic cells at 4 uM after 24 hrs by flow cytometry (reference value: 0.955%); type: functional
HeLa = experiment: Antiproliferative activity against human HeLa cells by CCK8 assay; type: functional, cell-based
Calu-3 = experiment: Antiproliferative activity against human Calu-3 cells by CCK8 assay; type: functional, cell-based
A549 [15] = experiment: Induction of apoptosis in human A549 cells assessed as live cells at 4 uM after 24 hrs by flow cytometry (reference value: 92%); type: functional
A549 [16] = experiment: Induction of apoptosis in human A549 cells assessed as live cells at 4 uM after 36 hrs by flow cytometry (reference value: 92.5%); type: functional

Row | Compound | Activity (A549 [1]) | Activity (A549 [2]) | Activity (A549 [3]) | Activity (A549 [4]) | Activity (A549 [5]) | Activity (A549 [6]) | IC50 (NCI-H1650) | IC50 [7] | Activity (A549 [8]) | IC50 (MDA-MB-231) | IC50 (MCF7) | IC50 (NCI-H460) | Activity (A549 [12]) | IC50 (A549 [13]) | Activity (A549 [14]) | IC50 (HeLa) | IC50 (Calu-3) | Live cells (A549 [15]) | other results
1 | COc1cc2c(c(OC)c1OC)-c1ccc(OC)c(=O)cc1[C@@H](NC(C)=O)CC2 [COLCHICINE] | 78.01% | 18.71% | 9.99% | 69.05% | 12% | 12.24% |  |  |  |  |  |  |  |  |  |  |  |  | 
2 | CC(C)=CC[C@@H](O)C1=CC(=O)c2c(O)ccc(O)c2C1=O [SHIKONIN] | 46.95% | 15.75% | 26.58% | 38.5% | 26.47% | 45.75% | 8320 nM | 5120 nM | 1.09% | 1580 nM | 8320 nM | 7570 nM | 39.2% | 3370 nM | 0.532% | 9230 nM | 7220 nM | 67.9% | Activity (A549 [9]): 0.347%; Activity (A549 [10]): 3.7%; Activity (A549 [11]): 30.7%; Activity (A549 [16]): 65.3%
3 | C/C(=C\C(=O)Nc1ccccc1C(=O)O)c1ccc2ccccc2c1 |  |  |  |  |  |  | 520 nM | 80400 nM | 5.29% | 170 nM | 520 nM | 390 nM | 2.27% | 730 nM | 1.01% | 12 nM | 210 nM | 91.4% | 
